Laboratory results as given in US9284559B2, “Multivalent aptamer complexes” (Wake Forest University Health Sciences, priority 2009, dated 2016).

Columns and labels:
PC3 xenografts = test: In vivo xenograft study of anti-tumor activity; details: for tumor growth relative to control: i.v. 1× per week via jugular vein catheter, 5FU 100 mg/kg, first 44 days, FdUMP[10] effect from day 18
Description: FIG. 7. Plot of tumor size versus time for PC3 xenografts in nude mice. Data are shown for four treatment groups (n=8 in each group): 1) control 1; 2) FdUMP[10]; 3) control 2; 4) 5-FU. The FdUMP[10] and 5FU studies were done consecutively (rather than concurrently) so that two control groups were required.
The principal strategy that will be used to render the dimeric aptamer complexes we have developed selectively cytotoxic towards targeted cancer cells is to include cytotoxic nucleotides, such as FdU, in the structure. While other modalities may also be included to render these modified aptamers cytotoxic to cancer cells (e.g. siRNA, toxins), there is considerable merit to the concept that dimeric aptamer complexes are the best method for delivery of FdU and other cytotoxic nucleotide analogs in the future. In principle, delivery of cytotoxic nucleotide analogs in aptamers increases the selectivity and potency of these drugs while minimizing systemic toxicities. In this regard, it is important to consider the advantages obtained by inclusion of FdU in single-stranded DNA (e.g. FdUMP[10]) relative to delivery as the nucleobase (5FU). We have shown that not only does delivery of fluoropyrimidine (FP) as FdUMP[10] increase efficacy and decrease toxicity, it also changes the spectrum of malignancies that are responsive to FP treatment. […] PSMA, the target for the dimeric aptamer complexes being developed by us, is frequently expressed in advanced prostate cancer. PSMA is also frequently expressed in tumor neovasculature. As FPs are widely used for treatment of solid tumors, the dimeric aptamer complexes developed in these studies should provide an improved mechanism for tumor-specific delivery of FPs.
We recently completed an in vivo xenograft study evaluating the anti-tumor activity of FdUMP[10] and 5FU towards PC3 xenografts (FIG. 8). […] FdUMP[10] (150 mg/kg) was injected i.v. 1× per week via jugular vein catheter. 5FU (100 mg/kg) was also injected 1× per week by the same route. […] FdUMP[10] was well-tolerated at the administered dose. A mixed effects model was fit to examine whether there were differences between groups over the first 44 days after administration of FdUMP[10] or 5FU. In this model, individual animals were considered as random effects and the group and day variables were considered as fixed effects. […] We expect that with dimeric aptamer complexes including FdU, we will further increase the selectivity for malignant cells and further reduce systemic toxicities. Thus, dimeric aptamer complexes may ultimately become the preferred method for administering fluoropyrimidine chemotherapy in the era of molecularly targeted cancer therapeutics.

PC3 cells [1] = test: Relative cytotoxicity of activated FPs in PC3 versus C4-2 cells; format: cell-based; details: PC3 mutant p53, C4-2 wtp53; ongoing studies
C4-2 cells [2] = test: Fluorescence microscopy of fluorescently-labeled aptamer, dimeric complex or mAb on live cells; format: cell-based
Method: (§1) FIG. 1. Fluorescence microscopy images of the PSMA01 DNA aptamer binding to (A) C4-2 cells; (B) LNCaP cells; (C)PC3 cells. (D) Binding of the A10-3 RNA aptamer to C4-2 cells. Live cells were incubated in PBS with 1×10^−6 M Rhodamine-conjugated aptamer for 2 h at room temperature. Cells were fixed with 3.7% formaldehyde for 2 min prior to visualization using an Olympus inverted microscope.
FIG. 3. Fluorescence microscopy images of (A) a monomeric aptamer conjugate of PSMA01 with a dT16 tail; (B) a dimeric aptamer complex consisting of 1:1 ratio of monomeric PSMA01 conjugates with dA16 and dT16 tails; (C) the J591 mAb. All images were obtained using live C4-2 cells. For (A) and (B) cells were prepared as described in FIG. 4. […]
We have has formed an affinity matrix using recombinant PSMA expressed from baculovirus. […] Protein purity was determined by gel electrophoresis and the identity of the protein was confirmed by Western blotting and mass spectrometry. […] The ssDNA product was analyzed by gel electrophoresis and quantified by UV absorption. […] DNA sequences were determined from individual clones at the core DNA sequencing facility of the CCCWFU. […] These sequences were also shown using fluorescence microscopy to bind selectively to PSMA-expressing prostate cancer cells (LNCaP, C4-2) relative to PC3 cells. […]

LNCaP cells = test: Fluorescence microscopy of fluorescently-labeled aptamer on live cells; format: cell-based; details: PSMA+ cells, 2 h, room temperature
Method: as §1
(§2) In these studies, live (non-fixed cells) cells were incubated in the presence of fluorescently-labeled aptamer for 2 h at room temperature. In these studies, C4-2 and LNCaP cells were used to evaluate binding to PSMA+ cells while PC3 cells were used as a PSMA− negative control.

PC3 cells [3] = test: Fluorescence microscopy of fluorescently-labeled aptamer on live cells (PSMA− negative control); format: cell-based; details: 2 h, room temperature
Method: as §1, §2

C4-2 cells [4] = test: Flow cytometry of binding of fluorescently labeled aptamers and dimeric aptamer complexes; format: cell-based; details: FIG. 6; Quasar 570 / Quasar 670 fluorescence
Method: FIG. 6. Flow cytometry evaluation of the binding of fluorescently labeled aptamers and dimeric aptamer complexes with and without flexible linkers to C4-2 cells. Aptamer labeling with Quasar 570 and Quasar 670 was done as described in FIG. 8.
The relative binding of the PSMA01 DNA aptamer in monomeric form as well as in dimeric form with and without flexible linkers was also evaluated towards C4-2 cells using flow cytometry. Cells were treated in the same manner as described for the confocal microscopy experiments and were detached using an enzyme-free cell-dissociation buffer (Invitrogen). Cells were analyzed using a BD FACSCanto flow cytometry system and the data were analyzed using BD FACSDiva software (BD Biosciences, San Jose, Calif.).

Compound | tumor growth relative to control (PC3 xenografts; FdUMP[10] 150 mg/kg) | tolerability / body weight at administered dose (PC3 xenografts; mouse, in vivo) | tolerability / body weight at administered dose (PC3 xenografts; i.v. 1× per week, FdUMP[10] 150 mg/kg, 5FU 100 mg/kg (maximum tolerated dose)) | relative sensitivity of PC3 versus C4-2 cells to activated FPs (PC3 cells [1]) | internalization into PSMA+ cells (C4-2 cells [2]; C4-2 and LNCaP cells, incubation at room temperature or 37° C.) | binding to C4-2 cells (C4-2 cells [2]; PSMA+ cells, live cells, 1×10^−6 M Rhodamine-conjugated aptamer, 2 h, room temperature) | binding to LNCaP cells (LNCaP cells) | binding to PC3 cells (PC3 cells [3]) | mean fluorescence intensity (cell binding) (C4-2 cells [4])
O=c1[nH]cc(F)c(=O)[nH]1 [5FU, 5-fluorouracil] | did not reduce tumor growth rates relative to control | lost weight compared to the controls | – | – | – | – | – | – | –
FdUMP[10] | significantly reduced tumor growth relative to control | – | well-tolerated | PC3 cells are more sensitive | – | – | – | – | –
PSMA01: DNA aptamer to PSMA, 5′-GCGTTTTCGCTTTTGCGTTTTGGGTCATCTGCTTACGATAGCAATCGT (SEQ ID NO: 1) (DNA, backbone and methylation of C not given here; further chemistry not fully specified) | – | – | – | – | Neither our PSMA-01 DNA aptamer nor the A10-3 aptamer were internalized into PSMA+ cells to any significant extent | selective binding | selective binding | no binding | right-shifted relative to background
